Laboratory results as given in the NIST ThermoML archive (doi:10.1016/j.jct.2015.04.028).

Settings: Gas, Vibrating wire viscometry

[He] [helium]
Settings	viscosity [mPa·s]
296.26 K, 100.3 kPa	0.01964
296.26 K, 332.1 kPa	0.01983
296.26 K, 500.3 kPa	0.01979
296.26 K, 716 kPa	0.01982
322.56 K, 110.1 kPa	0.02084
322.56 K, 306.5 kPa	0.02096
322.56 K, 521.2 kPa	0.02101
322.56 K, 723 kPa	0.021
373.12 K, 111.6 kPa	0.02307
373.12 K, 307.1 kPa	0.02314
373.12 K, 504.2 kPa	0.02318
373.12 K, 698.5 kPa	0.02322
472.08 K, 111.5 kPa	0.02712
472.08 K, 313.7 kPa	0.02727
472.08 K, 504.9 kPa	0.02725
472.08 K, 717.7 kPa	0.02732
572.96 K, 111.1 kPa	0.03107
572.96 K, 309.7 kPa	0.03119
572.96 K, 514.3 kPa	0.03119
572.96 K, 721.7 kPa	0.03123

[HH] [hydrogen]
Settings	viscosity [mPa·s]
296.26 K, 102.8 kPa	0.0089
296.26 K, 305.3 kPa	0.00897
296.26 K, 501 kPa	0.009
296.26 K, 700.6 kPa	0.00902
322.56 K, 111 kPa	0.00941
322.56 K, 302.4 kPa	0.00946
322.56 K, 502 kPa	0.00949
322.56 K, 698 kPa	0.00951
373.12 K, 111.6 kPa	0.01041
373.12 K, 301.2 kPa	0.01047
373.12 K, 503.1 kPa	0.01048
373.12 K, 701.4 kPa	0.0105
472.13 K, 111.4 kPa	0.01209
472.13 K, 298.9 kPa	0.01214
472.13 K, 500.1 kPa	0.01215
472.13 K, 701.1 kPa	0.01216
573.48 K, 98.9 kPa	0.01416
573.48 K, 298.2 kPa	0.0142
573.48 K, 503 kPa	0.01427
573.48 K, 701.6 kPa	0.01425

N#N [nitrogen]
Settings	viscosity [mPa·s]
296.26 K, 99.9 kPa	0.01766
296.26 K, 312.6 kPa	0.01773
297.05 K, 500.9 kPa	0.01783
297.05 K, 700.9 kPa	0.01789
322.56 K, 109.8 kPa	0.01884
322.56 K, 307.3 kPa	0.01892
322.56 K, 500.7 kPa	0.01899
322.56 K, 701.2 kPa	0.01904
373.12 K, 111.2 kPa	0.02104
373.12 K, 300.6 kPa	0.02109
373.12 K, 503.2 kPa	0.02119
373.12 K, 694.5 kPa	0.02121
472.1 K, 110.2 kPa	0.02498
472.1 K, 309.7 kPa	0.025
472.1 K, 505.8 kPa	0.02509
472.1 K, 703.4 kPa	0.02513
572.98 K, 111.7 kPa	0.02864
572.98 K, 316.1 kPa	0.02867
572.98 K, 502 kPa	0.02871
572.98 K, 703.4 kPa	0.02868
